Measured values published in patent US20150011501A1, “PARTIALLY DEPOLYMERIZED GLYCOSAMINOGLYCAN SILVER AND GOLD SALTS” (priority 2012, published 2015).

Experiments:
[1] = Viscosity test (dissolution time, appearance, displacement time); type: physicochemical; conditions: 0.01 g in 0.5 mL water, tube inverted (180° rotation)
Excerpt: The objective of the test was to verify that the viscosity of the partially depolymerized products obtained is lower than the viscosity of the starting products (non-depolymerized). The products assessed were the following: • High molecular weight silver chondroitin sulfate (comparative example 8); • Partially depolymerized silver chondroitin sulfate (example 1); • High molecular weight silver hyaluronate (comparative example 9) and • Partially depolymerized silver hyaluronate (example 2).
The following parameters were assessed: dissolution time, appearance (visual method) and displacement time.
0.01 g of each product was dissolved separately in 0.5 mL of distilled water in test tubes of 11.5 cm of length and 1 cm of diameter. Once the products were completely dissolved, the position of the tubes was inverted to check the displacement time.

[2] = Stability test (visual inspection of colour in the dark and under ambient light); type: physicochemical; conditions: precipitated product
Protocol: After this time, a visual inspection of the products was carried out and the products were protected in the dark again. After 12 hours, another visual inspection of the products was carried out. The products were then exposed to ambient light. After 5 hours, a visual inspection of the products was carried out.

E. Coli = assay: Test of antimicrobial activity (halo diameter on plate); type: cell-based; set-up: unit not given here; conditions: chondroitin sulfate products 10% w/v, hyaluronic acid products 1.4% w/v in water
Excerpt: (§1) The objective of the test was to verify the antimicrobial activity with the microorganisms E. Coli and S. Aureus. For this purpose, solutions in water of the following products were separately prepared: • Commercially available sodium chondroitin sulfate of marine origin having a molecular weight between 25,000 and 40,000 Daltons. Product described in European Pharmacopeia (01/2009:2064) (comparative example 10); • High molecular weight silver chondroitin sulfate (comparative example 8); • Partially depolymerized silver chondroitin sulfate (example 1); • High molecular weight silver hyaluronate (comparative example 9); • Partially depolymerized silver hyaluronate (example 2); • AgNO3 (comparative example 11); • Partially depolymerized gold chondroitin sulfate (example 3); • Partially depolymerized gold hyaluronate (example 4); and • Mixture of 1 g of commercially available sodium chondroitin sulfate of marine origin having a molecular weight between 25,000 and 40,000 Daltons and 0.1 g of AgNO3 (comparative example 12).
(§2) The products derived from chondroitin sulfate were dissolved at 10% (weight/volume). The products derived from hyaluronic acid were dissolved at 1.4% (weight/volume). For the rest of products water was added until complete dissolution.
(§3) Each of the products was applied, as well as a control (water), to a plate with S. Aureus and E. Coli. The products were incubated under standard conditions for S. Aureus and E. Coli. The results were expressed in areolar or halo diameter and were the following: for the comparative example 10 it was 0 in E. Coli and 0 in S. Aureus; for the comparative example 8 it was 7 in E. Coli and 8 in S. Aureus; for the example 1 it was 7 in E. Coli and 6 in S. Aureus; for the comparative example 9 it was 8 in E. Coli and 8 in S. Aureus; for the example 2 it was 7 in E. Coli and 6 in S. Aureus; for the comparative example 11 it was 8 in E. Coli and 6 in S. Aureus; for the example 3 it was 9 in E. Coli and 8 in S. Aureus; for the control it was 0 in E. Coli and 0 in S. Aureus; for the example 4 it was 4 in E. Coli and 6 in S. Aureus; and for the comparative example 12 it was 7 in E. Coli and 5 in S. Aureus.

S. Aureus = assay: as above; type: cell-based; set-up: unit not given here; conditions: chondroitin sulfate products 10% w/v, hyaluronic acid products 1.4% w/v in water
Excerpt: as §1, §2, §3

[3] = Preliminary test of toxicology (topical): side effects by visual inspection; type: in vivo
Protocol: (§4) The aim of this test was to assess the toxicity (topical) and effectiveness in burns. The side effects that the different products could cause including irritation, inflammation and/or darkening were assessed by visual inspection and photographs. The products assessed were the following: • Commercially available sodium chondroitin sulfate of marine origin having a molecular weight between 25,000 and 40,000 Daltons. Product described in European Pharmacopeia (01/2009:2064) (comparative example 10); • Partially depolymerized silver chondroitin sulfate (example 1); • Partially depolymerized silver chondroitin sulfate dissolved/mixed in a moisturizing cream (example 1c); • Partially depolymerized silver hyaluronate (example 2); • AgNO3 (comparative example 11); and • Partially depolymerized gold chondroitin sulfate (example 3).
(§5) The products derived from chondroitin sulfate were dissolved in water at 10% (weight/volume). The products derived from hyaluronic acid were dissolved at 1.4% (weight/volume). For the silver nitrate water was added until complete dissolution. The product of example 1c was mixed with a moisturizing cream.
All the products were applied in the “upper area of the arm” (upper biceps) and in the abdomen (area of the ribs). The products of examples 1, 2 and 3 were also applied in the “lower area of the arm”. The visual inspections were carried out with the following frequency after the application: 10 minutes, 30 minutes, 60 minutes, 8 h, 3 days, 4 days, 7 days and 9 days.
The treated areas were exposed to different types of light (solar, incandescent bulb, fluorescent) for 10 minutes. Darkening was not observed in any case. The abdomen was protected from the light after 10 minutes. The “upper area of the arm” was left under light exposure up to 8 hours. The “lower area of the arm” had continuous exposure to ambient light.

[4] = Absorption test on cellulose paper; type: physicochemical
Protocol: A comparative test of the absorption of the depolymerized compounds of the invention and the non-depolymerized compounds was carried out. To do this, partially depolymerized silver chondroitin sulfate (example 1) and high molecular weight silver chondroitin sulfate (comparative example 8) were dissolved separately with water at the same concentration (10% by weight/volume). Once the products were completely dissolved it was noted that the viscosity of the product of example 1 was lower than that of the product of the comparative example 8. 10 mL of each product were applied on cellulose paper.

[5] = Preliminary test of effectiveness in burns; type: in vivo; conditions: for efficacy in skin surfaces with burns or wounds: overall conclusion
Protocol: as §4, §5
In the application of the product of the comparative example 11 irritation was observed both in the “upper area of the arm” and in the abdomen at 10 minutes and at 30 minutes. […] At this moment, the product of example 1 was applied to the burn of the abdomen. 2 daily applications of the product of example 1 were done to the burn during the next 3 days. […] At this moment, the product of example 2 was applied to the burn of the “upper area of the arm”. 3 daily applications of the product of example 2 were done to the burn.

[6] = Acute oral toxicology test (OECD Guideline No. 420, fixed dose); type: in vivo; set-up: median lethal oral dose (LD50): unit not given here
Protocol: An acute oral toxicology test of partially depolymerized silver chondroitin sulfate (example 1) was carried out to assess the oral toxicity and identify the corresponding classification (GHS, Globally Harmonised Classification System for Chemical Substances and Mixtures). The study was conducted according to the OECD Guideline No. 420 (fixed dose).

[7] = after 5 hours of exposure to ambient light

Molecule | displacement time [1] [s] | color (visual inspection) ([2]; after 1 hour in the dark) | color (visual inspection) [2, 7] | color (visual inspection) ([2]; after 12 hours in the dark) | areolar or halo diameter (E. Coli) | areolar or halo diameter (S. Aureus) | also measured
High Molecular Weight Silver Chondroitin Sulfate [comparative example 8] | 30 | white | dark red | white | 7 | 8 | –
O=[N+]([O-])[O-].[Ag+] [comparative example 11, AgNO3] | – | – | – | – | 8 | 6 | side effects by visual inspection ([3]; topical, after 8 hours): irritation, itching, burning and a halo or aureole; side effects by visual inspection ([3]; topical, after the third day): increase of the diameter of the aureole of the burn; side effects by visual inspection ([3]; topical, parts where product was applied, after 60 minutes): irritation, itching and burning; side effects by visual inspection ([3]; topical, upper area of the arm and abdomen, at 10 minutes and at 30 minutes): irritation; side effects by visual inspection ([3]; topical, upper area of the arm, after the fourth day): increase of the diameter of the aureole of the burn; side effects by visual inspection ([3]; topical, upper area of the arm, after the seventh day): diameter of the aureole of the burn increased
Partially Depolymerized Ssilver Chondroitin Sulfate (Bleaching Agent: Sodium Metabisulfite) [comparative example 5] | – | reddish | black | reddish to black | – | – | –
Partially Depolymerized Gold Chondroitin Sulfate [example 3] | – | – | – | – | 9 | 8 | problems of darkening, irritation, itching or inflammation ([3]; in vivo): did not have problems of darkening, irritation, itching or inflammation; side effects by visual inspection ([3]; in vivo): no relevant behavior
High Molecular Weight Silver Hyaluronate [comparative example 9] | 300 | – | – | – | 8 | 8 | –
sodium chondroitin sulfate [comparative example 10] | – | – | – | – | 0 | 0 | –
Partially Depolymerized Gold Hyaluronate [example 4] | – | – | – | – | 4 | 6 | –
Partially Depolymerized Silver Chondroitin Sulfate [example 1] | 1 | white | white | white | 7 | 6 | viscosity relative to comparative example 8 ([4]; 10% by weight/volume in water): lower; absorption on cellulose paper relative to comparative example 8 ([4]; 10 mL of 10% w/v solution applied on cellulose paper): absorbed more rapidly; efficacy in skin surfaces with burns or wounds [5]: produce an improvement; burn healing (visual) ([5]; silver nitrate burn of the abdomen, 2 daily applications from third day, observed after the fourth day): nearly full disappearance of the burn; side effects by visual inspection ([3]; topical, all areas applied, all inspections from 10 minutes to 9 days): no relevant behavior; problems of darkening, irritation, itching or inflammation ([3]; topical, overall conclusion, unlike silver nitrate): did not have problems of darkening, irritation, itching or inflammation; GHS classification ([6]; Globally Harmonised Classification System): 5; median lethal oral dose (LD50) ([6]; OECD Guideline No. 420 fixed dose): > 2000
Partially Depolymerized Silver Chondroitin Sulfate (Without Bleaching Step) [comparative example 7] | – | white | dark red | white | – | – | –
Partially Depolymerized Silver Hyaluronate [example 2] | 1 | – | – | – | 7 | 6 | efficacy in skin surfaces with burns or wounds [5]: produce an improvement; burn healing (visual) ([5]; silver nitrate burn of the upper area of the arm, 3 daily applications from seventh day, observed after the ninth day): almost completely disappeared; problems of darkening, irritation, itching or inflammation ([3]; in vivo): did not have problems of darkening, irritation, itching or inflammation; side effects by visual inspection ([3]; in vivo): no relevant behavior
